Columns and labels:
[1] = test system: CRE-dependent transcription in cultured rat hippocampal neuronal cells; experiment: CRE-dependent transcription reporter gene (luciferase) assay in cultured rat hippocampal neuronal cells; format: cell-based; conditions: 8 hours treatment with different concentrations, FIGS. 5 and 6
Procedure: (§1) FIG. 5 indicates concentration-dependent effects of nobiletin on CRE-dependent transcription in cultured rat hippocampal neuronal cells. Cells were inoculated at a density of 8×10^4 cells/48 well plate followed by holding the plate for 10 to 14 days. […] Following transfection, the cells were treated for 8 hours with different concentrations of […]. Data is shown as the mean±S.E.M. (n=6). Asterisks (*) indicate a level of significance of p<0.05 relative to a control, while double asterisks (**) indicate a level of significance of p<0.001 relative to a control.
as §1, with “FIG. 6 indicates concentration-dependent” for “FIG. 5 indicates concentration-dependent”, “effects of 4-demethylated nobiletin on” for “effects of nobiletin on”
A pregnant SD rat (E18) was sacrificed by cervical dislocation under ether anesthesia. […]
Results obtained from the reporter gene assay were evaluated using one-way ANOVA (Tukey). […]

[2] = test system: ERK phosphorylation in PC12D cells; experiment: ERK phosphorylation in PC12D cells by western blotting (p-ERK relative to total ERK); format: cell-based; conditions: 15 minutes treatment, 30 μM nobiletin alone, FIG. 2
Procedure: Therefore, the effects of royal jelly and the effects of the combined used of royal jelly and nobiletin on ERK activity in PC12D cells, which are considered to be model cells of nerve cells, were examined by western blotting using as an indicator thereof the effects of water-soluble components of “Royal Jelly FD Powder” on ERK phosphorylation.
PC12D cells (Aichi Prefectural County Research Institute) were sub-cultured using Dulbecco's Modified Eagle Medium (DMEM) comprising heat inactivated (56° C., 30 minutes) 5% horse serum (HS: Gibco), 10% fetal calf serum (FCS: CELLect), penicillin (50 units/mL) and streptomycin ([…]). […]
PC12D cells were inoculated into a 35 mm dish at 1×10^6 cells/dish, and after culturing for 24 hours in a CO2 incubator, the cells were treated with drug. […] Moreover, after subjecting to ultrasonic treatment for 5 minutes in ice water, the lysate was centrifuged for 20 minutes at 14,000 rpm followed by recovery of the supernatant and quantification of the amount of protein. […] Bands were detected using the ECL method. […]
PC12D cells were inoculated into a 3.5 cm dish at 1×10^6 cells/dish and cultured overnight followed by treating for 15 minutes with low-serum medium comprising various drugs, and lysing the cells with cell lysis solution to obtain a cell extract. The expression levels of p-ERK and total ERK in the cell extract were then analyzed. […]

Row | SMILES | effect on CRE-dependent transcription [1] | effect on ERK phosphorylation [2]
1 | COc1cc(-c2cc(=O)c3c(OC)c(OC)c(OC)c(OC)c3o2)ccc1O [4-demethylated nobiletin, 2-(4-hydroxy-3-methoxyphenyl)-5,6,7,8-tetramethoxychromen-4-one] | concentration-dependently promote CRE-dependent transcription in the same manner as nobiletin | 
2 | COc1ccc(-c2cc(=O)c3c(OC)c(OC)c(OC)c(OC)c3o2)cc1OC [nobiletin, 5,6,7,8,3′,4′-hexamethoxyflavone] | concentration-dependently promote CRE-dependent transcription | only demonstrated weak promoting action of ERK phosphorylation when used alone
